This note sets out measurements from patent publication US10314816B2, “Antimicrobial compounds, compositions and methods of use thereof” (Wisconsin Alumni Research Foundation, priority 2012, dated 2019).

SMILES strings stand for the structures.

One assay concerns C. crescentus cells. The assay is described as follows: Cell lysis observed by phase contrast microscopy. It is filed as cell-based, Caulobacter crescentus. As for the experimental part: The lysed cells appear fainter in phase contrast images, compared to un-lysed cells (e.g., a cell in the white circle).
At high concentrations of DCAP (≥75 μM), cell lysis within minutes after treatment was observed (FIG. 4).

Another assay deals with MipZ-YFP. The assay is described as follows: Effects of compounds on MipZ localization. In kind it is cell-based, Caulobacter crescentus. As to conditions: DCAP 20 μM, 20 min after treating C. crescentus cells; p=0.0002 vs DMSO. On the procedure:
Effects of compounds on MipZ localization. A strain of C. crescentus in which MipZ was translationally fused to yellow fluorescent protein (YFP) was used to determine the effect of DCAP on MipZ localization. For experiments with C. crescentus expressing MipZ-YFP, overnight cultures were diluted 10-fold and incubated at least 1 hour prior to treatment with compounds. After adding compounds, cells were incubated at 200 rpm and 30° C. for 20 minutes. Cells were imaged as described above. Following cell segmentation and fluorescence signal calculation in MicrobeTracker, a separate MATLAB script was used to detect signal peaks within an individual cell. The number of total peaks and peak locations were calculated (i.e., poles or mid-cell) for each cell. Poles were defined as 1-25% and 75-100% along the normalized cell length (1-100%). […] After this classification, a contingency table was created with the total number of cells analyzed, and the number of cells with the ‘wildtype’ localization. […]
As a positive control, carbonyl cyanide m-chlorophenyl hydrazone (CCCP) was used. In FIG. 3, ‘wildtype’ (WT) localization was defined as 1) unipolar (a single peak of fluorescence signal at a pole) and 2) bipolar (two peaks at poles). […] At least 69 cells were analyzed for each sample. […]

The test system of a further assay is V cholera. The experiment in a line: MIC of bacterial growth (Table 2). Particulars: Vibrio cholerae. In kind it is cell-based. As for the experimental part:
(§1) Determination of the minimum inhibitory concentration (MIC) of bacterial growth. The MIC of various organisms in liquid media was determined using the macrodilution method according to the NCCLS guidelines. For the starting inoculum, cultures were diluted to contain approximately 5×10^5 cells/mL in growth media. To create a two-fold dilution series for the macrodilution technique, each compound was added to the first culture tube (4 mL total volume) at the highest concentration. 2 mL of this culture was diluted into an equal volume of inoculated media (a two-fold dilution). The final volume for each culture was 2 mL.

Another assay relates to M. morganii. The assay is described as follows: MIC of bacterial growth (Table 2). It is filed as cell-based. Particulars: Morganella morganii; M. morganii clinical isolate (Table 2). As for the experimental part: as §1
Another assay concerns K. pneumoniae. The experiment in a line: MIC of bacterial growth (Table 2). In kind it is cell-based. As to conditions: Klebsiella pneumoniae; K. pneumoniae clinical isolate (Table 2). As for the experimental part:
as §1

The next assay relates to A. baumannii. The assay is described as follows: MIC of bacterial growth (Table 2). As to conditions: Acinetobacter baumannii; A. baumannii clinical isolate (Table 2). In kind it is cell-based. On the procedure: as §1
The subject of a further assay is S. boydii. The experiment in a line: MIC of bacterial growth (Table 2). In kind it is cell-based. As to conditions: Shigella boydii; S. boydii clinical isolate (Table 2). As for the experimental part:
as §1

For the next assay, the system named is E. tarda. The assay is described as follows: MIC of bacterial growth (Table 2). In kind it is cell-based. Particulars: Edwardsiella tarda; E. tarda clinical isolate (Table 2). As for the experimental part: as §1
The next assay concerns S. typhimurium. The experiment in a line: MIC of bacterial growth (Table 2). In kind it is cell-based. Particulars: Salmonella enterica; S. typhimurium clinical isolate (Table 2). On the procedure: as §1

As for `OCC(CO)(CO)NCC(O)Cn1c2ccc(Cl)cc2c2cc(Cl)ccc21` (stereo not drawn) [DCAP, 2-((3-(3,6-dichloro-9H-carbazol-9-yl)-2-hydroxypropyl)amino)-2-(hydroxymethyl)propane-1,3-diol], in the assay with C. crescentus cells, the “Concentration at which cell lysis was observed within minutes after treatment” value was ≥ 75 µM. Further, the MipZ-YFP localization result with MipZ-YFP is given as “caused MipZ-YFP to mislocalize”. The MIC with V cholera is 100 µM; with M. morganii, 200 µM; with K. pneumoniae it was 100 µM; in the assay with A. baumannii, 200 µM; in the assay with S. boydii, 100 µM; in the assay on E. tarda it was 200 µM. For the same compound, the MIC with S. typhimurium is 50 µM.

Usually MIC stands for the smallest concentration in the dilution series that meets the test's criterion for growth inhibition.
